The numbers were not newly measured in PMC4629263 (Acta Pharmaceutica Sinica. B, 2015), which cites them from elsewhere.

Structures are written as SMILES.

The conditions of series [1]: room temperature.
The conditions of series [2]: mice.

Regarding `COc1cc(N)c2c(c1O)-c1c(OC)c(OC)cc3c1[C@H](C2)N(C)CC3` [8-amino-isocorydine], the “Stability in aqueous solution” value in series [1] was “not stable”. As to `COc1ccc2c(c1O)-c1c(OC)c(OC)cc3c1[C@H](C2)N(C)CC3` [ICD, Isocorydine], the pKa (commonly the pH at which an ionisable group is half protonated) is given as 7.16. Besides, the LD50 (in general, the dose expected to kill half of the subjects tested) in series [2] is on record as 32.2 mg/kg.
